Target: T1, cAMP and cAMP-inhibited cGMP 3',5'-cyclic phosphodiesterase 10A (Rattus norvegicus, UniProt Q9QYJ6)
T1 sequence (Q9QYJ6 whole entry): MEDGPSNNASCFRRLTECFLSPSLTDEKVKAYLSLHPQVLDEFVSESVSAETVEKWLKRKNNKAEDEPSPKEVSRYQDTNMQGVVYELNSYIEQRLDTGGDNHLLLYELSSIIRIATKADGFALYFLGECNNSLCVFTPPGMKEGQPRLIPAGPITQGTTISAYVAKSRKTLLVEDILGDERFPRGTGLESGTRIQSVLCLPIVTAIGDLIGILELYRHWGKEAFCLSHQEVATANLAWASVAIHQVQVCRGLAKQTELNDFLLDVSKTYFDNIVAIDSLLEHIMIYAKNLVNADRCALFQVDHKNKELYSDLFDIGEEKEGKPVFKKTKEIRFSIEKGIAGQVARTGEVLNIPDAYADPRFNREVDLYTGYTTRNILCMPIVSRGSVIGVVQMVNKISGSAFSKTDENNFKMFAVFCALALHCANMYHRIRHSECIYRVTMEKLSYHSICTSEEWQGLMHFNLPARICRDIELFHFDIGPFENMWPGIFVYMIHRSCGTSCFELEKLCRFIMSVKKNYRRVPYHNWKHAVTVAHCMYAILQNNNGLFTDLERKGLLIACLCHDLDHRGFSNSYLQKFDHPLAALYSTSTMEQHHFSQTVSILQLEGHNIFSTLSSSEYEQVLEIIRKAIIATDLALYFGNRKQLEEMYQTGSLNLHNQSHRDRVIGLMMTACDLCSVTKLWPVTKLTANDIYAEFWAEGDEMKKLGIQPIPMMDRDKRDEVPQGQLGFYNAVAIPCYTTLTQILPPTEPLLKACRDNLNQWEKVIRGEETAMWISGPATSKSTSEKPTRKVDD
Assay: Enzyme Inhibition Assay: Enzyme activity: An IMAP TR-FRET assay was used to analyze the enzyme activity (Molecular Devices Corp., Sunnyvale, Calif).

Row | SMILES | IC50
1 | OCc1cccc(-c2nccnc2OC2CN(c3ccc4ccccc4n3)C2)c1 | 23.3 nM
2 | Cc1cc(-c2nccnc2OC2CN(c3ccc4ccccc4n3)C2)ccn1 | 12.7 nM
3 | c1ccc2nc(N3CC(Oc4nccnc4-c4cccc5ncccc45)C3)ccc2c1 | 87 nM
4 | Nc1ncc2cc(-c3nccnc3OC3CN(c4ccc5ccccc5n4)C3)ccc2n1 | 3.3 nM
5 | COC(=O)N1CCC(c2nccnc2OC2CN(c3ccc4ccccc4n3)C2)CC1 | 158 nM
6 | CS(=O)(=O)N1CCC(c2nccnc2OC2CN(c3ccc4ccccc4n3)C2)CC1 | 208 nM
7 | CC(=O)N1CCC(c2nc3ccccc3nc2OC2CN(c3ccc4ccccc4n3)C2)CC1 | 2.9 nM
8 | c1ccc(Cc2ccc3oc(-c4nccnc4OC4CN(c5ccc6ccccc6n5)C4)cc3c2)cc1 | 363 nM
9 | COc1ccc(-c2nccnc2OC2CN(c3ccc4ccccc4n3)C2)cn1 | 25.4 nM
10 | c1ccc(-c2ccc(-c3nccnc3OC3CN(c4ccc5ccccc5n4)C3)s2)cc1 | 254 nM
11 | CC(C)Oc1cc(F)cc(-c2nccnc2OC2CN(c3ccc4ccccc4n3)C2)c1 | 174 nM
12 | COc1ncc(-c2nccnc2OC2CN(c3ccc4ccccc4n3)C2)cn1 | 42.8 nM
13 | c1ccc2nc(N3CC(Oc4nccnc4-c4ccc(OCC5CC5)nc4)C3)ccc2c1 | 50.2 nM
14 | COc1cccc(-c2cnc(N3CCC(CO)CC3)nc2OC2CN(c3ccc4ccccc4n3)C2)c1 | 3.3 nM
15 | Cc1cc(-c2cnc(N3CCC(CO)CC3)nc2OC2CN(c3ccc4ccccc4n3)C2)ccn1 | 0.3 nM
16 | COc1ncccc1-c1cnc(N2CCC(CO)CC2)nc1OC1CN(c2ccc3ccccc3n2)C1 | 0.6 nM
17 | Cc1ccc(-c2cnc(N3CCC(CO)CC3)nc2OC2CN(c3ccc4ccccc4n3)C2)cn1 | 0.2 nM
18 | OCC1CCN(c2ncc(C3=CCOCC3)c(OC3CN(c4ccc5ccccc5n4)C3)n2)CC1 | 1.1 nM
19 | CC(C)(C)OC(=O)N1CC=C(c2cnc(N3CCC(CO)CC3)nc2OC2CN(c3ccc4ccccc4n3)C2)CC1 | 0.3 nM
20 | Cc1cc(-c2nccnc2OC2CN(C(=O)c3nc4ccccc4[nH]3)C2)ccn1 | 156 nM
21 | COc1cnccc1-c1cccnc1OC1CN(C(=O)OCc2ccccc2)C1 | 7640 nM

Row | SMILES | IC50
22 | O=C(c1nc2ccccc2[nH]1)N1CCC(Oc2nccnc2-c2ccncc2)CC1 | 230 nM
23 | O=C(c1nc2ccccc2[nH]1)N1CC(Oc2nccnc2C2=CCOCC2)C1 | 222 nM
24 | CC(C)(C)OC(=O)N1CCC=C(c2nccnc2OC2CN(C(=O)c3nc4ccccc4[nH]3)C2)C1 | 227 nM
25 | CC(C)(C)OC(=O)N1C=C(c2nccnc2OC2CN(C(=O)c3nc4ccccc4[nH]3)C2)CCC1 | 36.5 nM
26 | Cc1cccc(-c2nccnc2OC2CN(c3ccc4ccccc4n3)C2)c1 | 57.3 nM
27 | COc1cccc(-c2nc3ccccc3nc2OC2CN(c3ccc4ccccc4n3)C2)c1 | 6.68 nM
28 | COc1ncccc1-c1nc2ccccc2nc1OC1CN(c2ccc3ccccc3n2)C1 | 5.5 nM
29 | c1ccc(-c2nccc(OC3CN(c4ccc5ccccc5n4)C3)n2)nc1 | 109 nM
30 | OCc1ccc(-c2nccc(OC3CN(c4ccc5ccccc5n4)C3)n2)cc1 | 8.45 nM
31 | FC1(F)CCN(c2nccnc2OC2CN(c3ccc4ccccc4n3)C2)CC1 | 4.23 nM
32 | FC1(F)CCN(c2nccnc2OC2CN(c3ccc4ccccc4n3)C2)C1 | 95.3 nM
33 | FC1(F)CCCN(c2nccnc2OC2CN(c3ccc4ccccc4n3)C2)C1 | 92.1 nM
34 | Fc1cnc(OC2CN(c3ccc4ccccc4n3)C2)c(N2CCC(F)(F)CC2)c1 | 144 nM
35 | FC1(F)CCN(c2cccnc2OC2CN(c3ccc4ccccc4n3)C2)CC1 | 35.9 nM
36 | COCC(=O)N1CCC(c2nccnc2OC2CN(c3ccc4ccccc4n3)C2)CC1 | 165 nM
37 | CC(=O)N1CCC(c2cc(C)cnc2OC2CN(c3ccc4ccccc4n3)C2)CC1 | 67.8 nM
38 | CC(=O)N1CCC(c2cc(F)cnc2OC2CN(c3ccc4ccccc4n3)C2)CC1 | 64.8 nM
39 | CC(=O)N1CCC(c2cccnc2OC2CN(c3ccc4ccccc4n3)C2)CC1 | 68.8 nM
40 | CC(=O)N1CC=C(c2nccnc2OC2CN(C(=O)OCc3ccccc3)C2)CC1 | 582 nM
41 | CC(=O)N1CCC(c2nccnc2OC2CCN(c3ccc4ccccc4n3)CC2)CC1 | 1640 nM
